In patent US11174248B2, “Indazolyl-spiro[2.3]hexane-carbonitrile derivatives as LRRK2 inhibitors, pharmaceutical compositions, and uses thereof” (Merck Sharp & Dohme Corp., priority 2017, dated 2021) one finds IC50 data, which are given here for 22 molecules.

Chain of GST-tagged truncated human mutant G2019S LRRK2 (Q5S007 970-2527 G2019S): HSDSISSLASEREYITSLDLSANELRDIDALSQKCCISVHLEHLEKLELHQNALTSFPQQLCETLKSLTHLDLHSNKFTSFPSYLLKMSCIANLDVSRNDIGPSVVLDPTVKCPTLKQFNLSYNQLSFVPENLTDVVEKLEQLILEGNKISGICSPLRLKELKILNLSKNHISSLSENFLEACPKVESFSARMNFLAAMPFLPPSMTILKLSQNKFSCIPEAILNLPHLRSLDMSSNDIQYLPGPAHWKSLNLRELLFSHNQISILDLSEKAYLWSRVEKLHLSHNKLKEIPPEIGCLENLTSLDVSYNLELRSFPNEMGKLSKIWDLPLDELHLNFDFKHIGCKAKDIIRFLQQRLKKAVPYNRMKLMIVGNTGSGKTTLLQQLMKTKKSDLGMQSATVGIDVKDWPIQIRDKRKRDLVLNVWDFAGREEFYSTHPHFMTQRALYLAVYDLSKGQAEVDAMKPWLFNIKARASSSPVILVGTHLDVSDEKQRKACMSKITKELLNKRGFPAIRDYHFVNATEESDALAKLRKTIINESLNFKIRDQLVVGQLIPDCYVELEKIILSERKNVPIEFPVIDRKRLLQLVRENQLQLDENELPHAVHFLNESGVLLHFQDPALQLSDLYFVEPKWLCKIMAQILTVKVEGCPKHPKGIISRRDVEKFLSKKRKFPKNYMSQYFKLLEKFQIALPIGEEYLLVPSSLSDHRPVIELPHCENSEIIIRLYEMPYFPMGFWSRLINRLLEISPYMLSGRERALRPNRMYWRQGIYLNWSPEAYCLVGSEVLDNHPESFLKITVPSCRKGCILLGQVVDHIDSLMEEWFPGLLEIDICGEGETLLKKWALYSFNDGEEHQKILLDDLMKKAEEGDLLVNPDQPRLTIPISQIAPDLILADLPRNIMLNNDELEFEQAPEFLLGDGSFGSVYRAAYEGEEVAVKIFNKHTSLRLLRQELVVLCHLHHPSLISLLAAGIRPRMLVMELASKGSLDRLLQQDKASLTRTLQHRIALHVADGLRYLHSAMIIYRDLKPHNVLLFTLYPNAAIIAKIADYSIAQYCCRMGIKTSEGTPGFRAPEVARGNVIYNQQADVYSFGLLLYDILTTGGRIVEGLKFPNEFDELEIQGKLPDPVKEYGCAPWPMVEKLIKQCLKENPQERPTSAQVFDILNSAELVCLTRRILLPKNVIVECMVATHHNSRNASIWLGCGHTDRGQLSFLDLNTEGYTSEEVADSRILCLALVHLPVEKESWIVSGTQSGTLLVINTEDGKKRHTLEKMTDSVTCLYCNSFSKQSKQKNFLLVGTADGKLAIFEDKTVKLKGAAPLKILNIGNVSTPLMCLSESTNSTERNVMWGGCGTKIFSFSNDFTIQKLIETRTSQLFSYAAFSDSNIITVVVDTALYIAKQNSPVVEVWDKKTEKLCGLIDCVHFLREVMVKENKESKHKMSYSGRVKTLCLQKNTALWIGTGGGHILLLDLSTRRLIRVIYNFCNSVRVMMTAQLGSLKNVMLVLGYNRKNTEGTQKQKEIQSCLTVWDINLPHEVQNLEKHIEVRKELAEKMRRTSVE

In this experiment the target is GST-tagged truncated human mutant G2019S LRRK2 (Homo sapiens (Human), UniProt Q5S007, G2019S). Briefly: LRRK2 Km ATP LanthaScreen Assay. It counts as biochemical. The conditions noted are these: 134 μM ATP (Km ATP); fluorescein-labeled LRRKtide substrate; mean IC50 values. The method, then:
Unless otherwise noted, all LRRK2 IC50 data presented in tables refers to the LRRK2 Km ATP LanthaScreen™ Assay that is described in the Biological Assay section.
Biological Assay: LRRK2 Km ATP LanthaScreen™ Assay
The LRRK2 kinase activity reported herein as IC50 values was determined with LanthaScreen™ technology from Life Technologies Corporation (Carlsbad, Calif.) using GST-tagged truncated human mutant G2019S LRRK2 in the presence of the fluorescein-labeled peptide substrate LRRKtide, also from Life Technologies. The data presented for the Km ATP LanthaScreen™ Assay represents mean IC50 values based on several test results and may have reasonable deviations depending on the specific conditions and reagents used. Assays were performed in the presence of 134 μM ATP (Km ATP). Upon completion, the assay was stopped and phosphorylated substrate detected with a terbium (Tb)-labeled anti-pERM antibody (cat. no. PV4898). The compound dose response was prepared by diluting a 10 mM stock of compound to a maximum concentration of 9.99 μM in 100% dimethylsulfoxide followed by custom fold serial dilution in dimethylsulfoxide nine times. Twenty nanoliters of each dilution was spotted via a Labcyte Echo onto a 384-well black-sided plate (Corning 3575) followed by 15 μl of a 1.25 nM enzyme solution in 1× assay buffer (50 mM Tris pH 8.5, 10 mM MgCl2, 0.01% Brij-35, 1 mM EGTA, 2 mM dithiothreitol, 0.05 mM sodium orthovanadate) Following a 15-minute incubation at room temperature, the kinase reaction was started with the addition of 5 μl of 400 nM fluorescein-labeled LRRKtide peptide substrate and 134 μM ATP solution in 1× assay buffer. The reaction was allowed to progress at ambient temperature for 90 minutes. The reaction was then stopped by the addition of 20 μl of TR-FRET Dilution Buffer (Life Technologies, Carlsbad, Calif.) containing 2 nM Tb-labeled anti-phospho LRRKtide antibody and 10 mM EDTA (Life Technologies, Carlsbad, Calif.). After an incubation of 1 hour at room temperature, the plate was read on an EnVision multimode plate reader (Perkin Elmer, Waltham, Mass.) with an excitation wavelength of 337 nm (Laser) and a reading emission at both 520 and 495 nm. Compound IC50s were interpolated from nonlinear regression best fits of the log of the final compound concentration, plotted as a function of the 520/495-nm emission ratio using Activity base. Abase uses a 4 parameter (4P) logistic fit based on the Levenberg-Marquardt algorithm.
(In general: In TR-FRET formats the signal depends on donor and acceptor labels being close together.)
Take `N#CC1(c2cc3c(cn2)cnn3-c2cc(N3CCN4CCOC[C@@H]4C3)ncn2)CC2(CC2)C1` [Example 49, (S)-5-(1-(6-(hexahydropyrazino[2,1-c][1,4]oxazin-8(1H)-yl)pyrimidin-4-yl)-1H-pyrazolo[4,3-c]pyridin-6-yl)spiro[2.3]hexane-5-carbonitrile]: 8.8 nM corresponded to half-maximal inhibition (IC50). To `Cc1nc(N2CCN3CCOC[C@@H]3C2)cc(-n2ncc3cnc(C4(C#N)CC5(CC5)C4)cc32)n1` [Example 48, (S)-5-(1-(6-(hexahydropyrazino[2,1-c][1,4]oxazin-8(1H)-yl)-2-methylpyrimidin-4-yl)-1H-pyrazolo[4,3-c]pyridin-6-yl)spiro[2.3]hexane-5-carbonitrile] belongs 20.2 nM; to `N#CC1(c2ccc3cnn(-c4ccnc(N5CC6(CO)CC5C6)c4)c3c2)CC2(CC2)C1` [Example 32, 5-(1-(2-(4-(hydroxymethyl)-2-azabicyclo[2.1.1]hexan-2-yl)pyridin-4-yl)-1H-indazol-6-yl)spiro[2.3]hexane-5-carbonitrile], 10 nM; to `CN1CCOC2CN(c3cc(-n4ncc5ccc(C6(C#N)CC7(CC7)C6)cc54)ncn3)CC21` (single isomer, unassigned) [Example 40, 5-(1-(6-(4-methylhexahydropyrrolo[3,4-b][1,4]oxazin-6(2H)-yl)pyrimidin-4-yl)-1H-indazol-6-yl)spiro[2.3]hexane-5-carbonitrile], 0.9 nM. The value for `CC(C)(O)[C@@H]1CCN(c2cc(-n3ncc4cnc(C5(C#N)CC6(CC6)C5)cc43)ncn2)C1` [Example 19, (R)-5-(1-(6-(3-(2-hydroxypropan-2-yl)pyrrolidin-1-yl)pyrimidin-4-yl)-1H-pyrazolo[4,3-c]pyridin-6-yl)spiro[2.3]hexane-5-carbonitrile] was 10.7 nM. With `Cc1nc(N2CC[C@H](O)[C@@H](F)C2)cc(-n2ncc3ccc(C4(C#N)CC5(CC5)C4)cc32)n1` [Example 2, 5-(1-(6-((3S,4S)-3-fluoro-4-hydroxypiperidin-1-yl)-2-methylpyrimidin-4-yl)-1H-indazol-6-yl)spiro[2.3]hexane-5-carbonitrile], half-maximal inhibition (IC50) was put at 5.1 nM. As to `N#CC1(c2ccc3cnn(-c4cc(N5CCN6CCOC[C@H]6C5)ncn4)c3c2)CC2(CC2)C1` [Example 46, (R)-5-(1-(6-(hexahydropyrazino[2,1-c][1,4]oxazin-8(1H)-yl)pyrimidin-4-yl)-1H-indazol-6-yl)spiro[2.3]hexane-5-carbonitrile], inhibition was half-maximal at 7 nM (IC50). The value for `CC(C)(O)[C@@H]1CCN(c2cc(-n3ncc4ccc(C5(C#N)CC6(CC6)C5)cc43)ncn2)C1` [Example 11, (R)-5-(1-(6-(3-(2-hydroxypropan-2-yl)pyrrolidin-1-yl)pyrimidin-4-yl)-1H-indazol-6-yl)spiro[2.3]hexane-5-carbonitrile] was 0.9 nM; that for `CC1C2(CC2)CC1(C#N)c1ccc2cnn(-c3cc(N4CCN5CCOC[C@@H]5C4)ncn3)c2c1` (single isomer, unassigned) [Example 55] was 34 nM.

Consider `N#CC1(c2ccc3cnn(-c4cc(N5CCC(C6COC6)CC5)ncn4)c3c2)CC2(CC2)C1` [Example 44, 5-(1-(6-(4-(oxetan-3-yl)piperidin-1-yl)pyrimidin-4-yl)-1H-indazol-6-yl)spiro[2.3]hexane-5-carbonitrile], for which 5 nM corresponded to half-maximal inhibition (IC50). The value for `COCc1nc(N2CCN(C3COC3)[C@@H](C)C2)cc(-n2ncc3ccc(C4(C#N)CC5(CC5)C4)cc32)n1` [Example 21, (S)-5-(1-(2-(methoxymethyl)-6-(3-methyl-4-(oxetan-3-yl)piperazin-1-yl)pyrimidin-4-yl)-1H-indazol-6-yl)spiro[2.3]hexane-5-carbonitrile] was 10.9 nM.

For `CN1CCN(c2cc(-n3ncc4ccc(C5(C#N)CC6(CC6)C5)cc43)ncn2)CC1CO` (single isomer, unassigned) [Example 16, 5-(1-(6-(3-(hydroxymethyl)-4-methylpiperazin-1-yl)pyrimidin-4-yl)-1H-indazol-6-yl)spiro[2.3]hexane-5-carbonitrile], 1.2 nM corresponded to half-maximal inhibition (IC50). `C[C@H]1CN(c2cc(-n3ncc4ccc(C5(C#N)CC6(CC6)C5)cc43)ncn2)CCN1C1CCOC1` (single isomer, unassigned) [Example 34]: the IC50 (in general, the point on the concentration scale where inhibition reaches its midpoint) is 0.9 nM.

Molecule `CN1CCN(c2cc(-n3ncc4ccc(C5(C#N)CC6(CC6)C5)cc43)ncn2)CC1CO` (single isomer, unassigned) [Example 15, 5-(1-(6-(3-(hydroxymethyl)-4-methylpiperazin-1-yl)pyrimidin-4-yl)-1H-indazol-6-yl)spiro[2.3]hexane-5-carbonitrile] returned an IC50 of 3.8 nM. The value for `CC1(O)CN(c2cc(-n3ncc4ccc(C5(C#N)CC6(CC6)C5)cc43)ncn2)C1` [Example 25, 5-(1-(6-(3-hydroxy-3-methylazetidin-1-yl)pyrimidin-4-yl)-1H-indazol-6-yl)spiro[2.3]hexane-5-carbonitrile] was 2.9 nM; that for `CC1C(C(C)(C)O)CCN1c1cc(-n2ncc3ccc(C4(C#N)CC5(CC5)C4)cc32)ncn1` (single isomer, unassigned) [Example 37, 5-(1-(6-(3-(2-hydroxypropan-2-yl)-2-methylpyrrolidin-1-yl)pyrimidin-4-yl)-1H-indazol-6-yl)spiro[2.3]hexane-5-carbonitrile] was 138 nM. Consider `C[C@@H]1CN(c2cc(-n3ncc4ccc(C5(C#N)CC6(CC6)C5)cc43)ncn2)C[C@H](C)[C@]1(C)O` [Example 17, 5-(1-(6-((3S,4s,5R and 3R,4s,5S)-4-hydroxy-3,4,5-trimethylpiperidin-1-yl)pyrimidin-4-yl)-1H-indazol-6-yl)spiro[2.3]hexane-5-carbonitrile], for which the IC50 amounted to 8.9 nM.

`CN1CCOC2(C1)CN(c1cc(-n3ncc4ccc(C5(C#N)CC6(CC6)C5)cc43)ncn1)C2` [Example 28, 5-(1-(6-(8-methyl-5-oxa-2,8-diazaspiro[3.5]nonan-2-yl)pyrimidin-4-yl)-1H-indazol-6-yl)spiro[2.3]hexane-5-carbonitrile] yielded an IC50 of 1.3 nM. Consider `N#CC1(c2ccc3cnn(-c4cc(N5CC(O)(C6CC6)C5)ncn4)c3c2)CC2(CC2)C1` [Example 27, 5-(1-(6-(3-cyclopropyl-3-hydroxyazetidin-1-yl)pyrimidin-4-yl)-1H-indazol-6-yl)spiro[2.3]hexane-5-carbonitrile], for which the half-inhibitory concentration (IC50) was determined as 7.4 nM. `CC(C)(O)C1CN(c2cc(-n3ncc4ccc(C5(C#N)CC6(CC6)C5)cc43)ncn2)C1` [Example 24, 5-(1-(6-(3-(2-hydroxypropan-2-yl)azetidin-1-yl)pyrimidin-4-yl)-1H-indazol-6-yl)spiro[2.3]hexane-5-carbonitrile] yielded a half-maximal inhibitory concentration (IC50) of 2.6 nM. `CC(C)(O)[C@@H]1CN(c2cc(-n3ncc4ccc(C5(C#N)CC6(CC6)C5)cc43)ncn2)CCO1` [Example 43, (S)-5-(1-(6-(2-(2-hydroxypropan-2-yl)morpholino)pyrimidin-4-yl)-1H-indazol-6-yl)spiro[2.3]hexane-5-carbonitrile] showed an IC50 of 0.9 nM.

In turn, `CNc1nc(N2CC3(C(C)(C)O)CC2C3)cc(-n2ncc3ccc(C4(C#N)CC5(CC5)C4)cc32)n1` [Example 29, 5-(1-(6-(4-(2-hydroxypropan-2-yl)-2-azabicyclo[2.1.1]hexan-2-yl)-2-(methylamino)pyrimidin-4-yl)-1H-indazol-6-yl)spiro[2.3]hexane-5-carbonitrile] gave an IC50 of 16.7 nM.
